Values quoted from earlier work in patent publication EP0413839A1, “GHRH analogs” (The Administrators of The Tulane Educational Fund, priority 1989, dated 1991).
No end group written: not given here.

Details: percent of the potency of hGRF

Row | Substance | potency of hGRF
1 | hGRF(1-23)-NH₂ (YADAIFTNSYRKVLGQLSARKLL-NH2; UniProt P01286 32-54, looked up, fragment) [shortened hGRF fragment with amidated C-terminus] | 0.24%
2 | hGRF(1-27)-NH₂ (YADAIFTNSYRKVLGQLSARKLLQDIM-NH2; UniProt P01286 32-58, looked up, fragment) [shortened hGRF fragment with amidated C-terminus] | 1.12%
3 | hGRF(1-29)OH | 12.6%
4 | hGRF(1-37)-NH₂ (YADAIFTNSYRKVLGQLSARKLLQDIMSRQQGESNQE-NH2; UniProt P01286 32-68, looked up, fragment) [fragment of human growth hormone releasing factor terminated with an amide group] | at least 50%
